Test results taken from publication PMC8585037 (International Journal of Molecular Sciences, 2021).
Where “and” joins values, the source holds several entries; their conditions need not be identical. Identical values can stand only once.

Tests used:
C57BL/6J mice = assay: Locomotor activity studies in mice; assay type: in vivo, mouse; details: for dose giving maximal locomotor effect (Emax): i.p.
vesicular DA uptake = tested on: vesicular DA uptake; design: method as in PMID 16835371; details: cited from earlier work
[1] = Pharmacokinetic studies: drug concentrations in mouse blood and brain tissue; details: for half-life / Cmax: C57BL/6, mouse, ip
DAT = target: T1, DAT (Rattus norvegicus, UniProt P23977); assay: Synaptosomal uptake of [3H]DA in rat brain synaptosomes; assay type: biochemical
T1 construct: Synaptosomes from rat cerebrum were isolated as described by Bogen et al; from tissue; host or cells: rat cerebrum synaptosomes
T1 sequence (P23977 whole entry): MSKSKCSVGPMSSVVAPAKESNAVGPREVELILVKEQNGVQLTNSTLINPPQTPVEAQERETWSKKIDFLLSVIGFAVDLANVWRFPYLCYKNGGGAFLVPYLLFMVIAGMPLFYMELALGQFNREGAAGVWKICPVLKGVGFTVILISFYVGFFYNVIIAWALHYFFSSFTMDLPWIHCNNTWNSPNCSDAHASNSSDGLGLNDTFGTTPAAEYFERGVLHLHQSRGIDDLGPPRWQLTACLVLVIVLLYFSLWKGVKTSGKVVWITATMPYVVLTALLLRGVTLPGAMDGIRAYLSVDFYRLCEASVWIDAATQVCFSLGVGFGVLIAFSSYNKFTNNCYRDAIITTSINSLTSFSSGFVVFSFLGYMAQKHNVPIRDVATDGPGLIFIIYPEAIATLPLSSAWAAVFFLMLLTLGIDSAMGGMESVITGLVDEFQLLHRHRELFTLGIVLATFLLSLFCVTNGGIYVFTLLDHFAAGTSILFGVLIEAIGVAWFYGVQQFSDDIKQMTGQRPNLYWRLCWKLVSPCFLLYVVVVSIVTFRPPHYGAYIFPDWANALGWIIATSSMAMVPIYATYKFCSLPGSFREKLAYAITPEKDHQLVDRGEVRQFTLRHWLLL

[2] = tested on: DA, 3-MT, DOPAC, 5-HT and 5-HIAA in dorsal striatum and nucleus accumbens; assay: Neurotransmitter and metabolite concentrations in post-mortem mouse brain tissue; assay type: in vivo; details: 20 min after 3.75 mg/kg i.p.
[3] = cited from earlier work
Sprague-Dawley rats = tested on: Sprague-Dawley rats; design: method as in PMID 27265782; details: i.p.; cited from earlier work
SERT = target: T2, SERT (Rattus norvegicus, UniProt P31652); assay: Synaptosomal uptake of [3H]5-HT in rat brain synaptosomes; assay type: biochemical; details: IC50 Synaptosomes [3H]5-HT Uptake via SERT
T2 construct: Synaptosomes from rat cerebrum were isolated as described by Bogen et al; from tissue; host or cells: rat cerebrum synaptosomes
T2 sequence (P31652 whole entry): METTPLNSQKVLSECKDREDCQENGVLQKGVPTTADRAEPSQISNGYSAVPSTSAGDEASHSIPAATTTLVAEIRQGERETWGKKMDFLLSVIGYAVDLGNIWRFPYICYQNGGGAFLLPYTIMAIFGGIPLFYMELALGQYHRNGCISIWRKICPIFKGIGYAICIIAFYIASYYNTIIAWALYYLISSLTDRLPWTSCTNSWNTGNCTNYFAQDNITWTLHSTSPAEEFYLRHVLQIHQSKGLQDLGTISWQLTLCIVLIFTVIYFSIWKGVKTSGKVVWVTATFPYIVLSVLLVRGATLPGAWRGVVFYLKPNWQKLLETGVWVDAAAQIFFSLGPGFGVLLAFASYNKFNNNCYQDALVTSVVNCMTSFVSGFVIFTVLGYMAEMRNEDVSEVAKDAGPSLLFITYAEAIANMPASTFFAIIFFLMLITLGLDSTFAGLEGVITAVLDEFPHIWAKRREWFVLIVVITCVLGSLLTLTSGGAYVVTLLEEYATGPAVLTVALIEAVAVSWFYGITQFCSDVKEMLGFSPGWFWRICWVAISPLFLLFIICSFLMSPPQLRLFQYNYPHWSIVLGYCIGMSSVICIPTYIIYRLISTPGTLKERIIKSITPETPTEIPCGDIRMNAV

CD-1 mice [4] = details: chronic exposure, 10 mg/kg/day for 30 days; cited from earlier work
VMAT2 = target: T3, VMAT2 (Rattus norvegicus, UniProt Q01827); assay: Vesicular uptake of [3H]DA, [3H]NE and [3H]5-HT in rat brain synaptic vesicles; assay type: biochemical
T3 construct: Synaptic vesicles from rat cerebrum were isolated as described previously; from tissue; host or cells: rat cerebrum synaptic vesicles
T3 sequence (Q01827 whole entry): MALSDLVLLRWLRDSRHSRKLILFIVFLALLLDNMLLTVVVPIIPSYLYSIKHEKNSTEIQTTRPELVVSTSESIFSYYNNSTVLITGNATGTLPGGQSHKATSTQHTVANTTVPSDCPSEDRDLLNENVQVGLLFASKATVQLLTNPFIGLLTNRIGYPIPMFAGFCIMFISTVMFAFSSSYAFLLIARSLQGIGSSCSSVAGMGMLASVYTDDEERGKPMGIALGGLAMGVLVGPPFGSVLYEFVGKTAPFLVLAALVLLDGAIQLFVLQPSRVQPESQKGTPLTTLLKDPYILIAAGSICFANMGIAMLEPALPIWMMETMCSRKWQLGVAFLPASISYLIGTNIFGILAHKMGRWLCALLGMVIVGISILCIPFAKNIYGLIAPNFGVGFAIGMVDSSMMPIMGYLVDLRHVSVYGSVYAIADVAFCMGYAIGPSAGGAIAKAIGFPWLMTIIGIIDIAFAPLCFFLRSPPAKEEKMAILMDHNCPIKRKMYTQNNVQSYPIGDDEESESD

NET = target: T4, NET (Rattus norvegicus, UniProt Q63380); assay: Synaptosomal uptake of [3H]NE in rat brain synaptosomes; assay type: biochemical
T4 construct: Synaptosomes from rat cerebrum were isolated as described by Bogen et al; from tissue; host or cells: rat cerebrum synaptosomes
T4 sequence (Q63380 1-617): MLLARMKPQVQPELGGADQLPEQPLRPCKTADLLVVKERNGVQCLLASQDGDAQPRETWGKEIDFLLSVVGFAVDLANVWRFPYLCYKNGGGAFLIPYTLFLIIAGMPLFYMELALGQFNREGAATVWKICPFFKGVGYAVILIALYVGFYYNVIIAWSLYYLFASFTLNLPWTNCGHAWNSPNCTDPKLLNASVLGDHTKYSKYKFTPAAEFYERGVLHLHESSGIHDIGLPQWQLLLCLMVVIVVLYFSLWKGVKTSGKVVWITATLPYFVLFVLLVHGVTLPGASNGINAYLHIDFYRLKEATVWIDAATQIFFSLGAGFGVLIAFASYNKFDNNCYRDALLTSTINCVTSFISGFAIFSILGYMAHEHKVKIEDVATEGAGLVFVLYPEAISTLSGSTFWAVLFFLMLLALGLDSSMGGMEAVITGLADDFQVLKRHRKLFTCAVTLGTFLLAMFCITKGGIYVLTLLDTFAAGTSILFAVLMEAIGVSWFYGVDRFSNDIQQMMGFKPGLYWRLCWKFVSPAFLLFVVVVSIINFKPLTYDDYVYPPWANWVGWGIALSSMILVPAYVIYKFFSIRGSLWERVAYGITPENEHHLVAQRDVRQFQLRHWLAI

CD-1 mice [5] = tested on: CD-1 mice; design: method as in PMID 32356113, PMID 33770233; details: i.p.; cited from earlier work
[6] = mouse, single i.p. injection of 3.75 mg/kg methamphetamine

CN[C@@H](C)Cc1ccccc1 [methamphetamine]
Emax, maximum run distance per 5 min interval (C57BL/6J mice; 3.75 mg/kg i.p., C57BL/6 mice): 1312 ± 126 cm | maximum total locomotor activity (total run distance during 240 min session) (C57BL/6J mice; 3.75 mg/kg i.p., C57BL/6 mice): 24,401 ± 2043 cm | dose giving maximal locomotor effect (Emax) (C57BL/6J mice; C57BL/6 mice): 3.75 mg/kg | IC50 (vesicular DA uptake): 9.1 µM | half-life ([1]; brain, 3.75 mg/kg): ~45 min | Cmax ([1]; brain, 3.75 mg/kg, Cmax in brain, mouse, single i.p. injection of 3.75 mg/kg methamphetamine): 4110 ± 150 ng/g | half-life ([1]; whole blood, 3.75 mg/kg): ~36 min | Cmax ([1]; whole blood, 3.75 mg/kg, Cmax in blood, mouse, single i.p. injection of 3.75 mg/kg methamphetamine): 910 ± 80 ng/mL | time of Cmax in blood [1, 6]: 5 min | time of Cmax in brain [1, 6]: 20 min | IC50 (DAT): 0.14 ± 0.01 µM | 3-MT concentration ([2]; Dorsal Striatum): 3.6 ± 0.7 nmol/g | 5-HT concentration ([2]; Dorsal Striatum): 2.0 ± 0.3 nmol/g | DA concentration ([2]; Dorsal Striatum): 107.4 ± 21.1 nmol/g | 3-MT concentration ([2]; Nucleus Accumbens): 3.5 ± 1.0 nmol/g | 5-HT concentration ([2]; Nucleus Accumbens): 6.1 ± 0.8 nmol/g | DA concentration ([2]; Nucleus Accumbens): 82.2 ± 10.5 nmol/g

CNC(C)Cc1cccs1 (stereo not shown) [methiopropamine, 1-(thiophen-2-yl)-2-methylaminopropane]
peripheral postmortem blood concentration ([3]; fatal case of isolated methiopropamine use): 38 µg/mL | blood concentration ([3]; fatal intoxication case): 245 µM | peak effect (Emax), maximum run distance per 5 min interval (C57BL/6J mice; […] i.p., C57BL/6 mice): 2037 ± 127 cm/5 min | dose giving maximal locomotor effect (Emax) (C57BL/6J mice; C57BL/6 mice): 12.5 mg/kg | sudden deaths (C57BL/6J mice; mouse, in vivo): did not observe any sudden deaths | dose with significant increase in locomotor activity (Sprague-Dawley rats): 5 mg/kg | IC50 (SERT): 25.1 ± 2.91 µM | sudden deaths (CD-1 mice [4]): 70 % deaths | IC50 (VMAT2; IC50 Synaptic Vesicles [3H]5-HT Uptake via VMAT2, rat brain synaptic vesicles): 48.9 ± 5.02 µM | IC50 (VMAT2; IC50 Synaptic Vesicles [3H]DA Uptake via VMAT2, rat brain synaptic vesicles): 33.8 µM | IC50 (VMAT2; IC50 Synaptic Vesicles [3H]NE Uptake via VMAT2, rat brain synaptic vesicles): 47 ± 8.01 µM | IC50 (VMAT2; IC50 vesicular uptake of DA, NE and 5-HT (span over the three substrates), rat brain synaptic vesicles): 34 to 49 µM and > 25 µM and 10 to 50 µM | IC50 (NET): 0.47 ± 0.06 µM | brain:blood ratios, comparison of the two drugs ([1]; 5, 30 and 60 min after injection, […] methiopropamine vs 3.75 mg/kg methamphetamine, p > 0.05): no significant differences | half-life ([1]; blood and brain, […]): ~30 min | half-life ([1]; brain, […]): ~35 min | half-life ([1]; whole blood, […]): ~31 min | IC50 (DAT): 0.74 ± 0.09 µM | potency, fold weaker compared with methamphetamine (DAT; DA, NE and 5-HT transporters): approximately 5 × | dose with significant increase in locomotor activity (CD-1 mice [5]): 10 mg/kg
